Legend:
[1] = system: MT-3/ADR resistant breast carcinoma; assay: Cytotoxicity, MTT assay, adriablastin resistant cell line MT-3/ADR; format: cell-based; conditions: concentration range tested up to 100 μM
Procedure: The cells were seeded in 96-well plates with 5×10^3 cells per well, in RPMI 1640 medium with 2 mM glutamine and 10% FBS. The cells were incubated for 24 hours. The test compounds were dissolved in DMSO and further diluted in medium just prior to use. 6 wells were used per test concentration. The cells were incubated with test compound for 24 hours. 20 μl of freshly prepared MTT solution was added to each well and incubated for 4 hours.

[2] = system: Hela mutant cervix carcinoma cells; assay: Cytotoxic activity with or without nucleoside transport inhibitor dipyridamole, MTT assay; format: cell-based; conditions: dipyridamole 10 μM
Procedure: Dipyridamole was used as an inhibitor of the equilibrative nucleoside transporters hENT1 and hENT2. The cells were seeded in 96-well plates with 5×10^3 cells per well, in RPMI 1640 medium with 2 mM glutamine and 10% FBS. The cells were pre-incubated for 24 hours. Dipyridamole (10 μM) was added to the cells 30 minutes prior to the addition of the test compounds. The test compounds were dissolved in DMSO and further diluted in medium just prior to use. 6 wells were used per test concentration. The cells were incubated with test compound for 72 hours. 20 μl of freshly prepared MTT solution was added to each well and incubated for 4 hours.

Structure (SMILES): Nc1ncn([C@@H]2O[C@H](CO)[C@@H](O)[C@H]2O)c(=O)n1 [Aza-C, 5-azacytidine]
- activity in the MT-3/ADR resistant cell line [1]: No activity was observed
- reduction of activity by addition of dipyridamole [2]: 3 fold

Source: patent US8399420B2, “Azacytidine analogues and uses thereof” (Mount Sanai School of Medicine, priority 2007, dated 2013)
